“And” between values parts separate entries of the source, which are not always exact repeats. Equal values may be shown once. Toxic doses and inconclusive results are not listed. Cut-off read from the data, not from the text of the source: active = T/C of 150% or more; inactive = T/C below 125%.
System: L1210 leukemia ip in BDF1 mice, survival T/C
Assay: NCI In Vivo Anticancer Drug Screen. Data for tumor model L1210 Leukemia (intraperitoneal) in B6D2F1 (BDF1) mice
Settings: higher = longer survival
Summary of the method: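 Transplantable tumor model; survival measured in treated vs vehicle control mice. Value = treated/control.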

Measured: T/C

O=P1(N(CCCl)CCCl)NCCCO1 (configuration not stated)
inactive: endpoint: mean survival time, dose: 0.9 mg/kg/injection, schedule: Q01DX009 (ip), vehicle: saline 99 % of control and 100 % of control | endpoint: mean survival time, dose: 1.0 mg/kg/injection, schedule: Q01DX Z (ip), vehicle: methylcellulose (MC) 93 % of control | endpoint: mean survival time, dose: 1.0 mg/kg/injection, schedule: Q01DX Z (oral), vehicle: saline 93 % of control | endpoint: mean survival time, dose: 1.0 mg/kg/injection, schedule: Q07DX Z (ip), vehicle: saline 103 % of control | endpoint: mean survival time, dose: 1.8 mg/kg/injection, schedule: Q01DX009 (ip), vehicle: saline 94 % of control | endpoint: mean survival time, dose: 2.5 mg/kg/injection, schedule: Q07DX Z (ip), vehicle: saline 97 % of control | endpoint: mean survival time, dose: 3.2 mg/kg/injection, schedule: Q01DX001 (ip), vehicle: saline 95 % of control | endpoint: mean survival time, dose: 3.5 mg/kg/injection, schedule: Q01DX009 (ip), vehicle: saline 100 % of control and 104 % of control | endpoint: mean survival time, dose: 3.5 mg/kg/injection, schedule: Q03HX032 (ip), vehicle: saline 110 % of control | endpoint: mean survival time, dose: 3.5 mg/kg/injection, schedule: Q## X032 (ip), vehicle: saline 110 % of control | endpoint: mean survival time, dose: 4.3 mg/kg/injection, schedule: Q01DX Z (ip), vehicle: saline 98 % of control | endpoint: mean survival time, dose: 5.0 mg/kg/injection, schedule: Q01DX Z (ip), vehicle: methylcellulose (MC) 105 % of control | endpoint: mean survival time, dose: 5.0 mg/kg/injection, schedule: Q07DX Z (ip), vehicle: saline 97 % of control | endpoint: mean survival time, dose: 5.36 mg/kg/injection, schedule: Q03HX032 (ip), vehicle: saline 102 % of control | endpoint: mean survival time, dose: 5.36 mg/kg/injection, schedule: Q## X032 (ip), vehicle: saline 102 % of control | endpoint: mean survival time, dose: 5.6 mg/kg/injection, schedule: Q13HX018 (ip), vehicle: saline 98 % of control | endpoint: mean survival time, dose: 6.0 mg/kg/injection, schedule: Q01DX Z (oral), vehicle: saline 108 % of control | endpoint: mean survival time, dose: 6.0 mg/kg/injection, schedule: Q03DX Z (ip), vehicle: saline 109 % of control | endpoint: mean survival time, dose: 6.25 mg/kg/injection, schedule: Q01DX009 (ip), vehicle: saline 104 % of control and 107 % of control | endpoint: mean survival time, dose: 6.25 mg/kg/injection, schedule: Q01DX Z (ip), vehicle: saline 102 % of control | endpoint: mean survival time, dose: 6.3 mg/kg/injection, schedule: Q01DX001 (ip), vehicle: saline 94 % of control | endpoint: mean survival time, dose: 7.13 mg/kg/injection, schedule: Q01DX Z (ip), vehicle: carboxymethylcellulose (CMC) 109 % of control | endpoint: mean survival time, dose: 7.5 mg/kg/injection, schedule: Q01DX009 (ip), vehicle: saline 110 % of control | endpoint: mean survival time, dose: 7.5 mg/kg/injection, schedule: Q01DX Z (ip), vehicle: saline 110 % of control | endpoint: mean survival time, dose: 7.5 mg/kg/injection, schedule: Q04DX002 (ip), vehicle: saline 94 % of control and 111 % of control | endpoint: mean survival time, dose: 8.5 mg/kg/injection, schedule: Q01DX Z (ip), vehicle: saline 110 % of control | endpoint: mean survival time, dose: 9.4 mg/kg/injection, schedule: Q01DX001 (ip), vehicle: water 103 % of control | endpoint: mean survival time, dose: 9.9 mg/kg/injection, schedule: Q01DX010 (ip), vehicle: saline 104 % of control | endpoint: mean survival time, dose: 10.0 mg/kg/injection, schedule: Q01DX Z (ip), vehicle: methylcellulose (MC) 104 % of control | endpoint: mean survival time, dose: 10.0 mg/kg/injection, schedule: Q07DX Z (ip), vehicle: saline 102 % of control | endpoint: mean survival time, dose: 11.25 mg/kg/injection, schedule: Q01DX001 (ip), vehicle: saline 98 % of control and 105 % of control | endpoint: mean survival time, dose: 11.3 mg/kg/injection, schedule: Q01DX Z (ip), vehicle: saline 113 % of control | endpoint: mean survival time, dose: 11.3 mg/kg/injection, schedule: Q## X Z (ip), vehicle: saline 110 % of control | endpoint: mean survival time, dose: 12.0 mg/kg/injection, schedule: Q01DX001 (ip), vehicle: saline 94 % of control and 111 % of control | endpoint: mean survival time, dose: 12.0 mg/kg/injection, schedule: Q01DX Z (im), vehicle: saline 97 % of control | endpoint: mean survival time, dose: 12.0 mg/kg/injection, schedule: Q01DX Z (oral), vehicle: saline 109 % of control | endpoint: mean survival time, dose: 12.0 mg/kg/injection, schedule: Q02DX010 (ip), vehicle: saline 111 % of control | endpoint: mean survival time, dose: 12.0 mg/kg/injection, schedule: Q03DX Z (ip), vehicle: saline 107 % of control | endpoint: mean survival time, dose: 12.5 mg/kg/injection, schedule: Q01DX001 (ip), vehicle: saline 96 % of control | endpoint: mean survival time, dose: 12.5 mg/kg/injection, schedule: Q01DX009 (ip), vehicle: saline 110 % of control | endpoint: mean survival time, dose: 12.5 mg/kg/injection, schedule: Q01DX Z (ip), vehicle: carboxymethylcellulose (CMC) 101 % of control | endpoint: mean survival time, dose: 12.6 mg/kg/injection, schedule: Q01DX009 (ip), vehicle: saline 110 % of control | endpoint: mean survival time, dose: 12.6 mg/kg/injection, schedule: Q01DX Z (ip), vehicle: saline 110 % of control | endpoint: mean survival time, dose: 15.0 mg/kg/injection, schedule: Q01DX Z (ip), vehicle: methylcellulose (MC) 100 % of control | endpoint: mean survival time, dose: 15.0 mg/kg/injection, schedule: Q04DX002 (ip), vehicle: saline 103 % of control | endpoint: mean survival time, dose: 15.0 mg/kg/injection, schedule: Q07DX Z (ip), vehicle: saline 107 % of control | endpoint: mean survival time, dose: 18.75 mg/kg/injection, schedule: Q01DX001 (ip), vehicle: water 103 % of control | endpoint: mean survival time, dose: 18.76 mg/kg/injection, schedule: Q02DX010 (ip), vehicle: saline 112 % of control | endpoint: mean survival time, dose: 19.0 mg/kg/injection, schedule: Q02DX010 (ip), vehicle: saline 110 % of control | endpoint: mean survival time, dose: 20.0 mg/kg/injection, schedule: Q01DX Z (ip), vehicle: methylcellulose (MC) 98 % of control | endpoint: mean survival time, dose: 22.5 mg/kg/injection, schedule: Q01DX001 (ip), vehicle: saline 106 % of control and 109 % of control | endpoint: mean survival time, dose: 22.5 mg/kg/injection, schedule: Q## X Z (ip), vehicle: saline 105 % of control | endpoint: mean survival time, dose: 25.0 mg/kg/injection, schedule: Q01DX006 (iv), vehicle: saline 103 % of control | endpoint: mean survival time, dose: 25.0 mg/kg/injection, schedule: Q01DX Z (im), vehicle: saline 113 % of control | endpoint: mean survival time, dose: 25.0 mg/kg/injection, schedule: Q04DX003 (ip), vehicle: saline 104 % of control | endpoint: mean survival time, dose: 28.5 mg/kg/injection, schedule: Q01DX Z (ip), vehicle: carboxymethylcellulose (CMC) 114 % of control | endpoint: mean survival time, dose: 37.0 mg/kg/injection, schedule: Q01DX001 (ip), vehicle: water 114 % of control | endpoint: mean survival time, dose: 37.5 mg/kg/injection, schedule: Q01DX001 (ip), vehicle: saline with Tween-80 112 % of control | endpoint: mean survival time, dose: 37.5 mg/kg/injection, schedule: Q01DX001 (ip), vehicle: water 114 % of control | endpoint: mean survival time, dose: 45.0 mg/kg/injection, schedule: Q13HX018 (ip), vehicle: saline 107 % of control | endpoint: mean survival time, dose: 45.0 mg/kg/injection, schedule: Q## X Z (ip), vehicle: saline 105 % of control | endpoint: mean survival time, dose: 50.0 mg/kg/injection, schedule: Q01DX Z (ip), vehicle: methylcellulose (MC) 112 % of control | endpoint: mean survival time, dose: 67.5 mg/kg/injection, schedule: Q## X006 (ip), vehicle: saline 100 % of control | endpoint: mean survival time, dose: 86.0 mg/kg/injection, schedule: Q01DX001 (ip), vehicle: saline 112 % of control | endpoint: mean survival time, dose: 90.0 mg/kg/injection, schedule: Q01DX009 (ip), vehicle: saline 107 % of control | endpoint: mean survival time, dose: 90.0 mg/kg/injection, schedule: Q01DX Z (ip), vehicle: saline 98 % of control | endpoint: mean survival time, dose: 90.0 mg/kg/injection, schedule: Q02DX010 (ip), vehicle: carboxymethylcellulose (CMC) 105 % of control | endpoint: mean survival time, dose: 97.0 mg/kg/injection, schedule: Q02DX010 (ip), vehicle: carboxymethylcellulose (CMC) 107 % of control | endpoint: mean survival time, dose: 97.0 mg/kg/injection, schedule: Q02DX010 (ip), vehicle: other 98 % of control | endpoint: mean survival time, dose: 100.0 mg/kg/injection, schedule: Q01DX Z (ip), vehicle: methylcellulose (MC) 108 % of control | endpoint: mean survival time, dose: 100.0 mg/kg/injection, schedule: Q01DX Z (oral), vehicle: saline 107 % of control | endpoint: mean survival time, dose: 135.0 mg/kg/injection, schedule: Q02DX010 (ip), vehicle: saline 111 % of control | endpoint: mean survival time, dose: 180.0 mg/kg/injection, schedule: Q01DX009 (ip), vehicle: saline 96 % of control | endpoint: mean survival time, dose: 180.0 mg/kg/injection, schedule: Q01DX010 (ip), vehicle: saline 102 % of control | endpoint: mean survival time, dose: 200.0 mg/kg/injection, schedule: Q01DX009 (ip), vehicle: saline 93 % of control | endpoint: mean survival time, dose: 200.0 mg/kg/injection, schedule: Q01DX Z (ip), vehicle: saline 100 % of control | endpoint: mean survival time, dose: 320.0 mg/kg/injection, schedule: Q04DX003 (ip), vehicle: saline 111 % of control | endpoint: mean survival time, dose: 360.0 mg/kg/injection, schedule: Q01DX001 (ip), vehicle: saline 113 % of control | endpoint: mean survival time, dose: 400.0 mg/kg/injection, schedule: Q04DX002 (ip), vehicle: saline 100 % of control | endpoint: mean survival time, dose: 468.0 mg/kg/injection, schedule: Q04DX002 (ip), vehicle: saline 111 % of control | endpoint: mean survival time, dose: 900.0 mg/kg/injection, schedule: Q01DX001 (ip), vehicle: saline 102 % of control | endpoint: median survival time, dose: 5.0 mg/kg/injection, schedule: Q01DX009 (ip), vehicle: saline 101 % of control and 110 % of control | endpoint: median survival time, dose: 10.0 mg/kg/injection, schedule: Q01DX001 (ip), vehicle: saline 99 % of control and 100 % of control | endpoint: median survival time, dose: 20.0 mg/kg/injection, schedule: Q01DX001 (ip), vehicle: saline 106 % of control | endpoint: median survival time, dose: 50.0 mg/kg/injection, schedule: Q08DX003 (ip), vehicle: saline 95 % of control and 97 % of control | endpoint: median survival time, dose: 90.0 mg/kg/injection, schedule: Q01DX009 (ip), vehicle: saline 105 % of control and 112 % of control | endpoint: median survival time, dose: 180.0 mg/kg/injection, schedule: Q01DX009 (ip), vehicle: saline 93 % of control
